{"source": "patent US9849140B2", "about": "“Topical compositions comprising bimatoprost and methods for stimulating hair growth therewith” (Allergan, Inc., priority 2009, dated 2017)", "key": {"[1]": {"test_system": "men with mild to moderate androgenic alopecia (AGA)", "assay": "Phase 2 multicenter trial, scalp hair growth efficacy (DIA: TAHC, TAHW, TAHD; SSA, IGA, GPR)", "assay_type": "in vivo, human", "experimental": "(§1) In a phase 2 multicenter trial, men 18-49 years of age with mild to moderate androgenic alopecia (AGA) were randomized in a 1:1:1:1:1 ratio to receive in a double-blind manner bimatoprost (BIM) 0.3%, 0.1%, 0.03%, or vehicle applied once daily, or open label over-the-counter minoxidil 5% solution (MIN) applied twice daily to the vertex area of the scalp for 6 months. Subjects were evaluated every 2 months during treatment and at 2 months after completing treatment. The BIM formulations used in this study were as described in Table 3 above.\nThe following assessments were made with digital image analysis (DIA; macrophotographs of a prespecified 1-cm^2 circular area at the anterior leading edge of the vertex thinning area of the scalp identified by microdot tattoo) using customized validated software: Target Area Hair Count (TAHC) measured in terminal hairs/cm^2; Target Area Hair Width (TAHW) measured in mm/cm^2; and, Target Area Hair Darkness (TAHD) measured in intensity units;\nCo-primary efficacy endpoints measured included the change from baseline in TAHC and the SSA of change in scalp hair growth. Secondary efficacy endpoints included changes from baseline in TAHW and TAHD, and IGA/GPR of changes in scalp hair growth. […]"}, "[2]": {"test_system": "men with mild to moderate androgenic alopecia (AGA)", "assay": "Phase 2 multicenter trial, safety (treatment-related adverse events, clinical laboratory, vital signs, ECGs, physical examinations)", "assay_type": "in vivo, human", "experimental": "as §1\nSafety measures included adverse event monitoring, local tolerability assessment, clinical laboratory testing, vital signs, 12-lead electrocardiograms (ECGs), and physical examinations.\nPercent changes from baseline in TAHC, TAHW, and TAHD were analyzed using the Wilcoxon rank-sum test. Frequency distributions of SSA, IGA, and GPR scores were analyzed using a Cochran-Mantel-Haenszel test stratified for age group (18-34 vs 35-49 years), and missing data were imputed to month 6 using a last-observation-carried-forward approach. Safety measures were evaluated in all subjects who received study medication; among-group and pairwise comparisons of the incidence of adverse events were performed using a chi-square or Fisher's exact test"}}, "data": [{"smiles": "CCNC(=O)CCC/C=C\\C[C@@H]1[C@@H](/C=C/[C@@H](O)CCc2ccccc2)[C@H](O)C[C@@H]1O", "note": "[bimatoprost, cyclopentane N-ethyl heptanamide-5-cis-2-(3α-hydroxy-5-phenyl-1-trans-pentenyl)-3,5-dihy-droxy, [1α,2β,3α,5α]]", "values": [{"measurement": "distribution of SSA (Subject Self Assessment) scores versus vehicle, in words", "setting": "[1]; month 6", "value": "did not differ"}, {"measurement": "changes in TAHC and TAHW versus vehicle, in words", "setting": "[1]; two months after stopping treatment", "value": "no longer significantly different from vehicle"}, {"measurement": "incidence of treatment-related adverse events, in words", "setting": "[2]; compared with vehicle and minoxidil", "value": "slightly higher with bimatoprost compared with vehicle, but lower than the rate with minoxidil"}, {"measurement": "changes in clinical laboratory parameters, vital signs, ECGs, or physical examinations, in words", "setting": "[2]; human, in vivo", "value": "no clinically meaningful or dose-dependent changes"}, {"measurement": "safety and tolerability profile, in words", "setting": "[2]; human, in vivo", "value": "consistent with that of an established topical treatment for scalp hair growth"}]}]}
